For 8 molecules, EC50 results are on record in patent US9499550B2 (BRISTOL-MYERS SQUIBB COMPANY, priority 2012, dated 2016).

Assay [1] relates to HCV genotype 1b (Con1) replicon in HUH-7 cells. Briefly: HCV replicon luciferase reporter assay, genotype 1b. In kind it is cell-based. Particulars: Hepatitis C virus, Huh-7, 72 h, HCV genotype 1b replicon luciferase, 3 days incubation. Summed up: (§1)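 Replicon inhibition for both genotypes was measured as Renilla luciferase signal (EnduRen, 7.5 μM final, 2 h) after 3-day, 37° C exposure of replicon-bearing HUH-7 cells in 4% FCS DMEM, 0.5% DMSO. The 1b construct carries S1179I; the 1a H77 construct carries P1496L and S2204I. Twenty-point, 3-fold dilutions were fitted four-parametrically for EC50, and CC50 was taken from multiplexed Cell Titer-Blue.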
On the technique in general: A replicon is a self-replicating genome or part of one, used to study replication in cells.

In assay [2] the test system is HCV genotype 1a (H77 strain) replicon in HUH-7 cells. As to the kind of experiment: HCV replicon luciferase reporter assay, genotype 1a. In kind it is cell-based. The note with it: Hepatitis C virus, Huh-7, 72 h, HCV genotype 1a replicon luciferase, 3 days incubation. Summed up: as §1

In general, EC50 refers to the concentration giving half of the maximal effect.

Like-named read-outs stand apart in the source and are kept apart here.

In the case of `CC[C@@H]1C[C@H](C)CC/C=C\[C@@H]2C[C@@]2(C(=O)NS(=O)(=O)C2(C)CC2)NC(=O)[C@@H]2C[C@@H](Oc3nc4c(c5ccccc35)OCCC4)CN2C(=O)C1NC(=O)OC(C)(C)C(F)(F)F` (stereo partly drawn) [Compound 6028, 1,1,1-trifluoro-2-methylpropan-2-yl((2R,6S,7R,9R,13aS,14aR,16aS,Z)-2-((3,4-dihydro-2H-pyrano[3,2-c]isoquinolin-6-yl)oxy)-7-ethyl-9-methyl-14a-(((1-methylcyclopropyl)sulfonyl)carbamoyl)-5,16-dioxo-1,2,3,5,6,7,8,9,10,11,13a,14,14a,15,16,16a-hexadecahydrocyclopropa[e]pyrrolo[1,2-a][1,4]diazacyclopentadecin-6-yl)carbamate], the concentration for a half-maximal effect (EC50) in assay [1] (read-out: LE_1b (EC50, range)) was below 5.46 nM; in assay [2] (read-out: LE_1a (EC50, range)), below 5.46 nM.

Regarding `C[C@H]1CC/C=C\[C@@H]2C[C@@]2(C(=O)NS(=O)(=O)C2(CF)CC2)NC(=O)[C@@H]2C[C@@H](Oc3nc4c(c5ccccc35)OCCC4)CN2C(=O)[C@@H](NC(=O)OC(C)(C)C(F)(F)F)[C@H](C)C1` [Compound 6029, 1,1,1-trifluoro-2-methylpropan-2-yl((2R,6S,7R,9S,13aS,14aR,16aS,Z)-2-((3,4-dihydro-2H-pyrano[3,2-c]isoquinolin-6-yl)oxy)-14a-(((1-(fluoromethyl)cyclopropyl)sulfonyl)carbamoyl)-7,9-dimethyl-5,16-dioxo-1,2,3,5,6,7,8,9,10,11,13a,14,14a,15,16,16a-hexadecahydrocyclopropa[e]pyrrolo[1,2-a][1,4]diazacyclopentadecin-6-yl)carbamate], the half-maximal effective concentration (EC50) lay in the range of 4.82 to 103 nM in assay [1] (read-out: LE_1b (EC50, range)) and 4.82 to 103 nM in assay [2] (read-out: LE_1a (EC50, range)).

Turning to `C[C@@H]1CC/C=C\[C@@H]2C[C@@]2(C(=O)NS(=O)(=O)C2(CF)CC2)NC(=O)[C@@H]2C[C@@H](Oc3nc4c(c5ccccc35)OCCC4)CN2C(=O)[C@@H](NC(=O)OC(C)(C)C(F)(F)F)[C@H](C)C1` [Compound 6030, 1,1,1-trifluoro-2-methylpropan-2-yl((2R,6S,7R,9R,13aS,14aR,16aS,Z)-2-((3,4-dihydro-2H-pyrano[3,2-c]isoquinolin-6-yl)oxy)-14a-(((1-(fluoromethyl)cyclopropyl)sulfonyl)carbamoyl)-7,9-dimethyl-5,16-dioxo-1,2,3,5,6,7,8,9,10,11,13a,14,14a,15,16,16a-hexadecahydrocyclopropa[e]pyrrolo[1,2-a][1,4]diazacyclopentadecin-6-yl)carbamate], the half-maximal effective concentration (EC50) in assay [1] (read-out: LE_1b (EC50)) is 0.81 nM; in assay [1] (read-out: LE_1b (EC50, range)) it was below 5.46 nM; in assay [2] (read-out: LE_1a (EC50)) it was 1.43 nM; in assay [2] (read-out: LE_1a (EC50, range)), below 5.46 nM.

For the molecule `C[C@H]1CC/C=C\[C@@H]2C[C@@]2(C(=O)NS(=O)(=O)C2(CF)CC2)NC(=O)[C@@H]2C[C@@H](Oc3nc4c(c5ccccc35)OCCC4)CN2C(=O)[C@@H](NC(=O)OC(C)(C)C(C)(F)F)[C@H](C)C1` [Compound 6031, 3,3-difluoro-2-methylbutan-2-yl((2R,6S,7R,9S,13aS,14aR,16aS,Z)-2-((3,4-dihydro-2H-pyrano[3,2-c]isoquinolin-6-yl)oxy)-14a-(((1-(fluoromethyl)cyclopropyl)sulfonyl)carbamoyl)-7,9-dimethyl-5,16-dioxo-1,2,3,5,6,7,8,9,10,11,13a,14,14a,15,16,16a-hexadecahydrocyclopropa[e]pyrrolo[1,2-a][1,4]diazacyclopentadecin-6-yl)carbamate], the EC50 in assay [1] (read-out: LE_1b (EC50, range)) was in the range of 4.82 to 103 nM; in assay [2] (read-out: LE_1a (EC50, range)) it was 4.82 to 103 nM.

Take `C[C@H]1CC/C=C\[C@@H]2C[C@@]2(C(=O)NS(=O)(=O)C2(C)CC2)NC(=O)[C@@H]2C[C@@H](Oc3nc4c(c5ccccc35)OCCC4)CN2C(=O)[C@@H](NC(=O)OC(C)(C)C(C)(F)F)[C@H](C)C1` [Compound 6033, 3,3-difluoro-2-methylbutan-2-yl((2R,6S,7R,9S,13aS,14aR,16aS,Z)-2-((3,4-dihydro-2H-pyrano[3,2-c]isoquinolin-6-yl)oxy)-7,9-dimethyl-14a-(((1-methylcyclopropyl)sulfonyl)carbamoyl)-5,16-dioxo-1,2,3,5,6,7,8,9,10,11,13a,14,14a,15,16,16a-hexadecahydrocyclopropa[e]pyrrolo[1,2-a][1,4]diazacyclopentadecin-6-yl)carbamate]: the concentration for a half-maximal effect (EC50) in assay [1] (read-out: LE_1b (EC50)) is 4.38 nM; in assay [1] (read-out: LE_1b (EC50, range)), below 5.46 nM; in assay [2] (read-out: LE_1a (EC50)), 10.7 nM; in assay [2] (read-out: LE_1a (EC50, range)), 4.82 to 103 nM.

Turning to `C[C@@H]1CC/C=C\[C@@H]2C[C@@]2(C(=O)NS(=O)(=O)C2(C)CC2)NC(=O)[C@@H]2C[C@@H](Oc3nc4c(c5ccccc35)OCCC4)CN2C(=O)[C@@H](NC(=O)OC(C)(C)C(C)(F)F)[C@H](C)C1` [Compound 6034, 3,3-difluoro-2-methylbutan-2-yl((2R,6S,7R,9R,13aS,14aR,16aS,Z)-2-((3,4-dihydro-2H-pyrano[3,2-c]isoquinolin-6-yl)oxy)-7,9-dimethyl-14a-(((1-methylcyclopropyl)sulfonyl)carbamoyl)-5,16-dioxo-1,2,3,5,6,7,8,9,10,11,13a,14,14a,15,16,16a-hexadecahydrocyclopropa[e]pyrrolo[1,2-a][1,4]diazacyclopentadecin-6-yl)carbamate], the concentration for a half-maximal effect (EC50) is below 5.46 nM in assay [1] (read-out: LE_1b (EC50, range)) and below 5.46 nM in assay [2] (read-out: LE_1a (EC50, range)).

Take `COc1cc2ccccc2c(O[C@@H]2C[C@H]3C(=O)N[C@]4(C(=O)NS(=O)(=O)C5CC5)C[C@H]4/C=C\CC[C@@H](C)C[C@@H](C)[C@H](NC(=O)OC(C)(C)C(C)(F)F)C(=O)N3C2)n1` [Compound 6036, 3,3-difluoro-2-methylbutan-2-yl((2R,6S,7R,9R,13aS,14aR,16aS,Z)-14a-((cyclopropylsulfonyl)carbamoyl)-2-((3-methoxyisoquinolin-1-yl)oxy)-7,9-dimethyl-5,16-dioxo-1,2,3,5,6,7,8,9,10,11,13a,14,14a,15,16,16a-hexadecahydrocyclopropa[e]pyrrolo[1,2-a][1,4]diazacyclopentadecin-6-yl)carbamate]: the EC50 is 0.38 nM in assay [1] (read-out: LE_1b (EC50)); below 5.46 nM in assay [1] (read-out: LE_1b (EC50, range)); 0.53 nM in assay [2] (read-out: LE_1a (EC50)); below 5.46 nM in assay [2] (read-out: LE_1a (EC50, range)).

As for `COc1cc2ccccc2c(O[C@@H]2C[C@H]3C(=O)N[C@]4(C(=O)NS(=O)(=O)C5(CF)CC5)C[C@H]4/C=C\CC[C@@H](C)C[C@@H](C)[C@H](NC(=O)OC(C)(C)C(C)(F)F)C(=O)N3C2)n1` [Compound 6038, 3,3-difluoro-2-methylbutan-2-yl((2R,6S,7R,9R,13aS,14aR,16aS,Z)-14a-(((1-(fluoromethyl)cyclopropyl)sulfonyl)carbamoyl)-2-((3-methoxyisoquinolin-1-yl)oxy)-7,9-dimethyl-5,16-dioxo-1,2,3,5,6,7,8,9,10,11,13a,14,14a,15,16,16a-hexadecahydrocyclopropa[e]pyrrolo[1,2-a][1,4]diazacyclopentadecin-6-yl)carbamate], the EC50 in assay [1] (read-out: LE_1b (EC50, range)) is below 5.46 nM; in assay [2] (read-out: LE_1a (EC50, range)), below 5.46 nM.
